Values quoted from earlier work, collected in publication PMC10341550, “Beta-Secretase 1 Recruits Amyloid-Beta Precursor Protein to ROCK2 Kinase, Resulting in Erroneous Phosphorylation and Beta-Amyloid Plaque Formation” (International Journal of Molecular Sciences, 2023).

Tests used:
Conditions in all cases: cited from earlier work
[1] = tested on: protein kinase CK2α
Source text: Despite decades of intensive research, there is no efficient drug to prevent or cure Alzheimer’s disease. […] During the processing of APP, its cleavage by BACE1 is the rate-limiting step [16]; therefore, the inhibition of BACE1 could be a trivial solution. The development of small molecular inhibitors against BACE1 was set back with a series of unwanted side effects. Previously, it was shown that pharmacological inhibition of ROCK2 activity diminishes sAPPβ pro ...

[2] = tested on: ROCK2
[3] = tested on: Aβ production in an AD mouse brain
Source text: Alzheimer’s disease is currently the leading cause of dementia, with no effective treatment. […] Although Aβ cannot account for all features of Alzheimer’s disease, reducing Aβ production or accumulation is a major therapeutic strategy to confront the disease. The accumulation of Aβ peptides in senile plaques is the consequence of pathological processing of APP. There are two major pathways of APP processing: a non-amyloidogenic pathway invo ...

Row | SMILES | inhibition of protein kinase CK2α (in words) [1] | ROCK2 inhibition selectivity (in words) [2] | Aβ production [3]
1 | CC(C)NC(=O)COc1cccc(-c2nc(Nc3ccc4[nH]ncc4c3)c3ccccc3n2)c1 [belumosudil] | inhibition of the protein kinase CK2α | highly selective | 
2 | CN(C)CCOc1cc(-c2cn[nH]c2)ccc1NC(=O)C1COc2ccccc2O1 (stereo not drawn) [SR3677] |  |  | diminished the production of Aβ in an AD mouse brain
